{"source": "patent US10793599B2", "about": "“MPHOSPH1-derived peptide, and vaccine including same” (OncoTherapy Science, Inc., priority 2015, dated 2020)", "assay_type_in_all_cases": "cell-based, human", "key": {"peptide-pulsed C1R-A11 [1]": {"test_system": "peptide-pulsed C1R-A11", "assay": "In vitro CTL induction, IFN-gamma ELISPOT assay (HLA-A*11:01)", "settings": "CD8 positive T cells of HLA-A*11:01-positive donors after three stimulations with peptide-pulsed DCs, against peptide-pulsed C1R-A11", "procedure": "(§1) Monocyte-derived dendritic cells (DCs) were used as the antigen-presenting cell to induce a specific cytotoxic T lymphocyte (CTL) response against peptides presented on human leukocyte antigens (HLAs). As already reported in literatures, DCs were generated in vitro (Nakahara S et al., Cancer Res 2003, 63(14): 4112-8). Specifically, peripheral-blood mononuclear cells (PBMCs) collected from healthy volunteers (HLA-A*11:01-positive) with the Ficoll-Paque plus solution (Pharmacia) were seeded in plastic tissue culture dishes (Corning) to let the monocytes in the PBMCs adhere to the dishes. This was cultured in the presence of 1000 IU/ml granulocyte macrophage colony-stimulating factor (R&D System) and 1000 IU/ml interleukin (IL)-4 (R&D System) for seven days. An AIM-V medium (Invitrogen) containing 5% inactivated AB-type serum (ABS) was used as the medium. DCs that were induced to differentiate from monocytes using the cytokines were pulsed with 20 micro-g/ml of each synthesized peptide (37 degrees C., three hours). Peptide pulsing was carried out in an AIM-V medium containing 3 micro-g/ml beta 2-microglobulin. These peptide-pulsed DCs were inactivated by X-ray irradiation (20 Gy), mixed in a 1:20 ratio with autologous CD8 positive T cells obtained by positive selection using the CD8 Positive Isolation Kit (Invitrogen) (1.5×10^4 DCs and 3×10^5 CD8 positive T cells), and cultured in a 48-well plate (Corning). Each well contained 0.5 ml of the 5% ABS/AIM-V medium, and IL-7 (R&D System) was added thereto (final concentration: 10 ng/ml). Two days after the start of the culture, IL-2 (Novartis) was added (final concentration: 20 IU/ml). On day 7 and day 14 of culture, the CD8 positive T cells were further stimulated with peptide-pulsed DCs. The DCs were prepared at the time of use by the same method as above. After day 21 (after three DC stimulations), IFN-gamma production against the peptide-pulsed C1R-A11 was confirmed using human interferon (IFN)-gamma enzyme-linked immunospot (ELISPOT) assay (Tanaka H et al., Br J Cancer 2001, 84(1): 94-9; Umano Y et al., Br J Cancer 2001, 84(8): 1052-7; Uchida N et al., Clin Cancer Res 2004, 10(24): 8577-86; Suda T et al., Cancer Sci 2006, 97(5): 411-9; Watanabe T et al., Cancer Sci 2005, 96(8): 498-506).\n(§2) Peptide-pulsed C1R-A11 (1×10^4 cells/well) was prepared as the target cell. The IFN-gamma ELISPOT assay and IFN-gamma ELISA were performed according to the assay kit manufacturer's manual."}, "peptide-pulsed C1R-A33 [2]": {"test_system": "peptide-pulsed C1R-A33", "assay": "In vitro CTL induction, IFN-gamma ELISPOT assay (HLA-A*33:03)", "settings": "CD8 positive T cells of HLA-A*33:03-positive donors after three stimulations with peptide-pulsed DCs, against peptide-pulsed C1R-A33", "procedure": "as §1, with “(HLA-A*33:03-positive)” for “(HLA-A*11:01-positive)”, “there” for “thereto”, “C1R-A33” for “C1R-A11”, “1052-7:” for “1052-7;”\n(§3) Peptide-pulsed C1R-A33 (1×10^4 cells/well) was prepared as the target cell. The IFN-gamma ELISPOT assay and IFN-gamma ELISA assay were performed according to the assay kit manufacturer's manual."}, "peptide-pulsed C1R-A33 [3]": {"test_system": "peptide-pulsed C1R-A33", "assay": "IFN-gamma ELISA of CTL lines and CTL clones (HLA-A*33:03)", "settings": "listed as MPHOSPH1-A33-10-57", "procedure": "(§4) CTLs were propagated using methods similar to those reported by Riddell et al. (Walter E A et al., N Engl J Med 1995, 333(16): 1038-44; Riddell S R et al., Nat Med 1996, 2(2): 216-23). The CTLs were cultured in 25 ml 5% ABS/AIM-V medium together with two types of Mitomycin C-treated human B lymphoblastoid cell lines (5×10^6 cells/25 ml medium each) and an anti-CD3 antibody (final concentration: 40 ng/ml). On the day after beginning of the culturing, IL-2 (final concentration: 120 IU/ml) was added to the culture. On days 5, 8 and 11, the medium was changed to a 5% ABS/AIM-V medium containing IL-2 (final concentration: 30 IU/ml) (Tanaka H et al., Br J Cancer 2001, 84(1): 94-9; Umano Y et al., Br J Cancer 2001, 84(8): 1052-7; Uchida N et al., Clin Cancer Res 2004, 10(24): 8577-86; Suda T et al., Cancer Sci 2006, 97(5): 411-9; Watanabe T et al., Cancer Sci 2005, 96(8): 498-506).\nAfter induction of CTLs in vitro, the CTLs were seeded onto 96 round-bottomed microtiter plates (Nalge Nunc International) at 1 cell/well or 10 cells/well. The CTLs were cultured with two types of Mitomycin C-treated human B lymphoblastoid cell lines (1×10^4 cells/well each) in a total of 150 micro-l/well 5% ABS/AIM-V medium with an anti-CD3 antibody (final concentration: 30 ng/ml) and IL-2 (final concentration: 125 IU/ml). Ten days later, 50 micro-l 5% ABS/AIM-V medium containing 500 IU/ml IL-2 was added to the culture.\nas §3"}, "peptide-pulsed C1R-A11 [4]": {"test_system": "peptide-pulsed C1R-A11", "assay": "IFN-gamma ELISA of CTL lines and CTL clones (HLA-A*11:01)", "settings": "listed as MPHOSPH1-A11-9-1227", "procedure": "as §4\nAfter induction of CTLs in vitro, the CTLs were seeded onto 96 round-bottomed microtiter plates (Nalge Nunc International) at 1 cell/well or 10 cells/well. The CTLs were cultured with two types of Mitomycin C-treated human B lymphoblastoid cell lines (1×10^4 cells/well each) in a total of 150 micro-1/well 5% ABS/AIM-V medium with an anti-CD3 antibody (final concentration: 30 ng/ml) and IL-2 (final concentration: 125 IU/ml). Ten days later, 50 micro-15% ABS/AIM-V medium containing 500 IU/ml IL-2 was added to the culture. […].\nas §2"}}, "note": "“Also recorded” adds a separate entry of the source."}
{"sequence": "CILGRLSEK (a peptide derived from MPHOSPH1) [SEQ ID NO: 27]", "values": [{"measurement": "peptide-specific IFN-gamma production (ELISPOT)", "setting": "peptide-pulsed C1R-A11 [1]; listed as MPHOSPH1-A11-9-96", "value": "Peptide-specific IFN-gamma production was observed"}]}
{"sequence": "DLQKWREER (a peptide derived from MPHOSPH1) [SEQ ID NO: 119]", "values": [{"measurement": "peptide-specific IFN-gamma production (ELISPOT)", "setting": "peptide-pulsed C1R-A33 [2]; listed as MPHOSPH1-A33-9-1474", "value": "Peptide-specific IFN-gamma production was observed"}]}
{"sequence": "DYLQVCLRIR (a peptide derived from MPHOSPH1) [SEQ ID NO: 170]", "values": [{"measurement": "peptide-specific IFN-gamma production of CTL clone (ELISA)", "setting": "peptide-pulsed C1R-A33 [3]; CTL clone by limiting dilution, against C1R-A33 pulsed with the peptide", "value": "showed a peptide-specific IFN-gamma production"}, {"measurement": "IFN-gamma production by CTL line (ELISA)", "setting": "peptide-pulsed C1R-A33 [3]; CTL line against C1R-A33 pulsed with the peptide", "value": "CTL lines that produce IFN-gamma in a peptide-specific manner were established; also recorded: observed"}, {"measurement": "peptide-specific IFN-gamma production (ELISPOT)", "setting": "peptide-pulsed C1R-A33 [2]; listed as MPHOSPH1-A33-10-57", "value": "Peptide-specific IFN-gamma production was observed"}]}
{"sequence": "SIIGVNLATK (a peptide derived from MPHOSPH1) [SEQ ID NO: 53]", "values": [{"measurement": "peptide-specific IFN-gamma production (ELISPOT)", "setting": "peptide-pulsed C1R-A11 [1]; listed as MPHOSPH1-A11-10-1675", "value": "Peptide-specific IFN-gamma production was observed"}]}
{"sequence": "SSARTQNLK (a peptide derived from MPHOSPH1) [SEQ ID NO: 12]", "values": [{"measurement": "peptide-specific IFN-gamma production of CTL clone (ELISA)", "setting": "peptide-pulsed C1R-A11 [4]; CTL clone by limiting dilution, against C1R-A11 pulsed with the peptide", "value": "showed a peptide-specific IFN-gamma production"}, {"measurement": "IFN-gamma production by CTL line (ELISA)", "setting": "peptide-pulsed C1R-A11 [4]; CTL line against C1R-A11 pulsed with the peptide", "value": "CTL lines that produce IFN-gamma in a peptide-specific manner were established; also recorded: observed"}, {"measurement": "peptide-specific IFN-gamma production (ELISPOT)", "setting": "peptide-pulsed C1R-A11 [1]; listed as MPHOSPH1-A11-9-1227", "value": "Peptide-specific IFN-gamma production was observed"}]}
{"sequence": "SSKKTYSLR (a peptide derived from MPHOSPH1) [SEQ ID NO: 48]", "values": [{"measurement": "peptide-specific IFN-gamma production (ELISPOT)", "setting": "peptide-pulsed C1R-A33 [2]; listed as MPHOSPH1-A33-9-1663", "value": "peptide-specific IFN-gamma production was not observed"}]}
{"sequence": "TINEFQNLK (a peptide derived from MPHOSPH1) [SEQ ID NO: 4]", "values": [{"measurement": "peptide-specific IFN-gamma production (ELISPOT)", "setting": "peptide-pulsed C1R-A11 [1]; listed as MPHOSPH1-A11-9-739", "value": "peptide-specific IFN-gamma production was not observed"}]}
{"sequence": "TSSLIINNK (a peptide derived from MPHOSPH1) [SEQ ID NO: 5]", "values": [{"measurement": "peptide-specific IFN-gamma production (ELISPOT)", "setting": "peptide-pulsed C1R-A11 [1]; listed as MPHOSPH1-A11-9-762", "value": "Peptide-specific IFN-gamma production was observed"}]}
